pIC50: −log10 of the molar value.
How the values were obtained:
[1] = target: HPK1 (MAP4K1) (Homo sapiens, UniProt Q92918); assay: HPK1 (MAP4K1) kinase Lantha screen assay; type: biochemical
Procedure, shortened: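 Recombinant MAP4K1 preincubated 10 min with compound (6-point dilution, duplicates) in 50 mM HEPES pH 7.5, 10 mM MgCl2, then reacted with Fluorescein-PKC substrate and ATP for 90 min at room temperature. Antibody detection solution stopped reaction; after 60 min, TR-FRET read at ex 340 nm, em 520/495 nm.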

[2] = test system: P-glycoprotein (MDR1); assay: in vitro; conditions: dog, MDCK-MDR1
[3] = target: c-Kit (Homo sapiens, UniProt P10721); assay: cKit kinase mobility shift assay; type: biochemical
Procedure, shortened: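 Human kinase with DTT in 50 mM HEPES pH 7.5 and 0.01% Triton X-100 was preincubated with compound for 10 min at room temperature, using a 5-point dilution in duplicate. FAM-labeled peptide, ATP and MgCl2 were then added and the reaction run at 28° C. Reactions were stopped with EDTA buffer and peptide conversion was read by Caliper mobility shift.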

[4] = target: T1, Axl (Homo sapiens, UniProt P30530); assay: AXL kinase mobility shift assay; type: biochemical
T1 sequence (P30530 26-894): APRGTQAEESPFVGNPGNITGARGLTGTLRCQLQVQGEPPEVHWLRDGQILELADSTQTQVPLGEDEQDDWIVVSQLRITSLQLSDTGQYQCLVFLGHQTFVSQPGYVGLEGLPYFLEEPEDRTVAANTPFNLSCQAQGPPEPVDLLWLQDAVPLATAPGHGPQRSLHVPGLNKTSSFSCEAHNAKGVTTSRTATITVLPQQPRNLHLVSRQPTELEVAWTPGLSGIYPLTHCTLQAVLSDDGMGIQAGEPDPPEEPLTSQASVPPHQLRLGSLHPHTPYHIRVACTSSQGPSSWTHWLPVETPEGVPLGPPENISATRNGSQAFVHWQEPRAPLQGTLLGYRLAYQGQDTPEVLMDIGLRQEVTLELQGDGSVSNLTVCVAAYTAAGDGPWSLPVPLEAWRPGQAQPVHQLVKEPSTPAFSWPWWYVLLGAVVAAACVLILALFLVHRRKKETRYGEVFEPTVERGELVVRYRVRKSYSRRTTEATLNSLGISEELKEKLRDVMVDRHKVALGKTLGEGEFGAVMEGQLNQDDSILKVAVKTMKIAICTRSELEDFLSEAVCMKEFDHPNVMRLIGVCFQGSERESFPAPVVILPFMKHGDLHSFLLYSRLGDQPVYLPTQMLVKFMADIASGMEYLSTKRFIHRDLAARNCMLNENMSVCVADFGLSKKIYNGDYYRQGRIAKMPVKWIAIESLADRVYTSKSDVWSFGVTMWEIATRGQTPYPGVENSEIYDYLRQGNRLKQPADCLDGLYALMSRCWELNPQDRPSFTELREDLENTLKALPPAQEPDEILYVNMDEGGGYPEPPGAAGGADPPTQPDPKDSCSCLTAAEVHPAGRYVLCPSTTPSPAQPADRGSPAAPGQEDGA
Method: (§1) The effect of the compounds on the activity of cKit, RET and AXL kinases were assessed by Mobility shift assay. • 1. 1× kinase base buffer and stop buffer for testing kinases were prepared • 1-1) 1× Kinase base buffer (50 mM HEPES, pH 7.5, 0.01% Triton X-100) • 1-2) Stop buffer (100 mM HEPES, pH 7.5, 0.015% Brij-35, 0.2% Coating Reagent #3, 50 mM EDTA) • 2. Compound and assay plate preparation: the compound was diluted to 50× of the final desired highest inhibitor concentration in reaction by 100% DMSO. 100 μl of this compound dilution was transferred to a well in a 96-well plate. For example, if the highest desired concentration was 5 μM, then 250 μM of compound DMSO solution was prepared in this step. For all compounds, the compound was serially diluted by transferring 10 μl to 70 μl of 100 DMSO in the next well and so forth for a total of 5 concentrations. 100 μl of 100% DMSO was added to two empty wells for no compound control and no enzyme control in the same 96-well plate. The plate was labeled as source plate. The intermediate plate was prepared by transferring 10 μl of compound from source plate to a new 96-well plate as the intermediate plate, adding 90 μl of 1× kinase buffer to each well of the intermediate plate, mixing the compounds in intermediate plate for 10 min on shaker. 5 μl of each well from the 96-well intermediate plate were transferred to a 384-well plate in duplicates. For example, A1 of the 96-well plate was transferred to A1 and A2 of the 384-well plate. A2 of the 96-well plate was transferred to A3 and A4 of the 384-well plate, and so on. • 4. Kinase reaction: The assay plate already contained 5 μl of compound in 10% DMSO. A 2.5× enzyme solution was prepared by adding kinases (cKit, RET, or AXL) and DTT in 1× kinase base buffer. 2.5× enzyme solution was transferred to the assay plate (by adding 10 μl of 2.5× enzyme solution to each well of the 384-well assay plate). The plate was incubated at room temperature for 10 min. 2.5× peptide solution was prepared by adding FAM-labeled peptide, ATP, MgCl2 in the 1× kinase base buffer. 2.5× peptide solution was added to the assay plate by adding 10 μl of 2.5× peptide solution to each well of the 384-well assay plate. The plate was incubated at 28° C. for the specified period of time. 25 μl of stop buffer was added to stop reaction. Data was collected on Caliper.

[5] = target: RET (Homo sapiens, UniProt P07949); assay: RET kinase mobility shift assay; type: biochemical
Method: as §1

[6] = target: PAK1 (Homo sapiens, UniProt Q13153); conditions: background statement on known PAK1 inhibitors; result in words only; cited from earlier work
PAK1, sequence (Q13153 whole entry): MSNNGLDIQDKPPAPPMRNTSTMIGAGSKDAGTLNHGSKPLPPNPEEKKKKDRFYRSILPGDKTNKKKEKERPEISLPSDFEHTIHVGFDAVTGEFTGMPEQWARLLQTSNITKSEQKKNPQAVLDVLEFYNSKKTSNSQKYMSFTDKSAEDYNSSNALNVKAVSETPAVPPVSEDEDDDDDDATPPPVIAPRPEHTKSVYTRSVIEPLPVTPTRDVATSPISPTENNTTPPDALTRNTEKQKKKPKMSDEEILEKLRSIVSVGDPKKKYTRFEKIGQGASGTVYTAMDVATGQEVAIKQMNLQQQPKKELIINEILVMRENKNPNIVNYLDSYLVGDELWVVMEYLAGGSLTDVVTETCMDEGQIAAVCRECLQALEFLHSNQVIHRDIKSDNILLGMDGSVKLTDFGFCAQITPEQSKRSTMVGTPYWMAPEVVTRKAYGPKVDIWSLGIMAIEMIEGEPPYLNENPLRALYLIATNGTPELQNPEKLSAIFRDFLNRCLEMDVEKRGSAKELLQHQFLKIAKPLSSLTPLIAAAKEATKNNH

HPK1 (MAP4K1), sequence (Q92918 whole entry, species assumed): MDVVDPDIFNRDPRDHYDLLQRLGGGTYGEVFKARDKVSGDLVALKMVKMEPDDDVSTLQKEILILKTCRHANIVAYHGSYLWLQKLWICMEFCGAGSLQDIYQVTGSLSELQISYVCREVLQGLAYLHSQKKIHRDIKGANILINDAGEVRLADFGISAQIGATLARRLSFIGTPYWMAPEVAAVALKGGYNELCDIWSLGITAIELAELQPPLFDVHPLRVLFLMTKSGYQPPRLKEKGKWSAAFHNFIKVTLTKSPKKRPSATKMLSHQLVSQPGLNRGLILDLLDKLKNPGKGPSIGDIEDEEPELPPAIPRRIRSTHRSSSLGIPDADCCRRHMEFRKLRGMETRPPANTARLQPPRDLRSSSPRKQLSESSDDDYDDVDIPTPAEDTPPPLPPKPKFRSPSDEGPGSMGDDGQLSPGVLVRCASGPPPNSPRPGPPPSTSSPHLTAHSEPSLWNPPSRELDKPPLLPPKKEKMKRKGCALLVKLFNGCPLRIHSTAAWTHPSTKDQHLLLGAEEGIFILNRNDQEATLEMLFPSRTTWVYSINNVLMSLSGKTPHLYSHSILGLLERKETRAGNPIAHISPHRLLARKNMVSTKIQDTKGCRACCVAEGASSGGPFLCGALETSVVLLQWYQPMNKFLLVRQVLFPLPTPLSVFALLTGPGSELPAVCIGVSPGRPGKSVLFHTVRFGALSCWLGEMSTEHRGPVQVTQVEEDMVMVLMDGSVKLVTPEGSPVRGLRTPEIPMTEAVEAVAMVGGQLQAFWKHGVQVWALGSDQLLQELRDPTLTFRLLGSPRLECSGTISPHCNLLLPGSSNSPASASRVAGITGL
RET, sequence (P07949 29-1114, species assumed): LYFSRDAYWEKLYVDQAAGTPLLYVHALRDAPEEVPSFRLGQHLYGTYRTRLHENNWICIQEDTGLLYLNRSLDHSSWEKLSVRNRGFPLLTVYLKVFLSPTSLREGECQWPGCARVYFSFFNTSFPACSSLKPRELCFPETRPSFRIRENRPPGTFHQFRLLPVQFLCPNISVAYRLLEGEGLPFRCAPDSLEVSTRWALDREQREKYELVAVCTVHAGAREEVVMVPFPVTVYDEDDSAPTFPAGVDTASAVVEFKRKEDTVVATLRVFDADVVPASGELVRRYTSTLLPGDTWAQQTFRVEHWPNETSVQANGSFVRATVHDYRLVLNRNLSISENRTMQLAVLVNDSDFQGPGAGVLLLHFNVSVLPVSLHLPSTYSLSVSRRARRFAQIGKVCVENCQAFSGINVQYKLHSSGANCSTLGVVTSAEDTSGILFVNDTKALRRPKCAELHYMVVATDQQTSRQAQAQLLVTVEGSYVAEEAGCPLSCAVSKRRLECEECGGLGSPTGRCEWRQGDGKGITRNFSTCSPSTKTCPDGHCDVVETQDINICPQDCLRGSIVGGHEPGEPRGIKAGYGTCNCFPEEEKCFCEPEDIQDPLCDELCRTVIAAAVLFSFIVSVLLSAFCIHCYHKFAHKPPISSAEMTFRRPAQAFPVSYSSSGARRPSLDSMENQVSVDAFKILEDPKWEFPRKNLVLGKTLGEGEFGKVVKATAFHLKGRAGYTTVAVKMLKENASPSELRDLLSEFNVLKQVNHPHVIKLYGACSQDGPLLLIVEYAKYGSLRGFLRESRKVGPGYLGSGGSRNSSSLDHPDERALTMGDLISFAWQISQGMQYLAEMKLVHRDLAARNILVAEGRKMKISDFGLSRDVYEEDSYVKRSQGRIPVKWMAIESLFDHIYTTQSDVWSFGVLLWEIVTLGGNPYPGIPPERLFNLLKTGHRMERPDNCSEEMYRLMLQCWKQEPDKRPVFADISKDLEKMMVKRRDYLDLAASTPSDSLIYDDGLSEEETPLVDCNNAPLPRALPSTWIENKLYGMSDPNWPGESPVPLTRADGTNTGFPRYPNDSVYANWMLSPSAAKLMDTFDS
c-Kit, sequence (P10721 26-976): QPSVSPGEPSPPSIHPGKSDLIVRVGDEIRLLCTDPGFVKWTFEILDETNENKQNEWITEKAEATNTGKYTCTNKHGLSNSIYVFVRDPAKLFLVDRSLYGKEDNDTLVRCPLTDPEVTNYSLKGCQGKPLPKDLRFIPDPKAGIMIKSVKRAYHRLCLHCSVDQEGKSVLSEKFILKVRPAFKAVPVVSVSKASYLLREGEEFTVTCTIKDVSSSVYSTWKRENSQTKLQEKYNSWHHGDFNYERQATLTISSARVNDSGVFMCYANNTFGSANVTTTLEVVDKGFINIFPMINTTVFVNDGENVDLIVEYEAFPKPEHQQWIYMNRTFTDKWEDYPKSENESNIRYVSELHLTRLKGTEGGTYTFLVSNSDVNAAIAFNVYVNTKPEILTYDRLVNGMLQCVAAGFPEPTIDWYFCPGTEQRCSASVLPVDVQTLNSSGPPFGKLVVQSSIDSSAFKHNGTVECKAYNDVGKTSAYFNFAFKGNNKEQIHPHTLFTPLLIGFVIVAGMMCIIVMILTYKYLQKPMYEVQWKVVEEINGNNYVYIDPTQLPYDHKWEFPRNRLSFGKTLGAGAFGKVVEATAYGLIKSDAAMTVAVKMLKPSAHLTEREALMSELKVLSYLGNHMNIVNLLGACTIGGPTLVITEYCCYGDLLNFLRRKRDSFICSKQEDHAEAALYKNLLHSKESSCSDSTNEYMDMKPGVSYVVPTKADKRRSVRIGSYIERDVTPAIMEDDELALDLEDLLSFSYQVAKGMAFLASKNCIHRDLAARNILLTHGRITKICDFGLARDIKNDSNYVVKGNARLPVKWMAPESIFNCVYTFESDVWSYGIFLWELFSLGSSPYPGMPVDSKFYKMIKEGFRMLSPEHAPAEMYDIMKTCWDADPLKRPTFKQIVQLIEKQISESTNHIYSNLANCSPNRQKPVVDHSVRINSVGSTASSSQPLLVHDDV

Structure (SMILES) | pIC50 [1] | Papp A→B at 120 min [2] [×10⁻⁶ cm/s] | Papp B→A at 120 min [2] [×10⁻⁶ cm/s] | efflux ratio at 120 min [2] | pIC50 [3] | pIC50 [4] | pIC50 [5] | inhibition of the PAK1 enzyme [6]
Cc1ccc(NC(=O)c2cc(C(F)(F)F)ccn2)cc1C1=Cc2cnc(NC3CCOCC3)nc2N2CCN=C12 [Compound 115, N-(4-methyl-3-(2-((tetrahydro-2H-pyran-4-yl)amino)-8,9-dihydroimidazo[1′,2′:1,6]pyrido[2,3-d]pyrimidin-6-yl)phenyl)-4-(trifluoromethyl)picolinamide hydrogen chloride] | > 7.00 | 22.8 | 36.9 | 1.6 | > 7.00 |  |  | 
CNc1ncc2c(n1)N1CCN=C1C(c1ccc(NC(=O)C3(C(=O)Nc4ccc(F)cc4)CC3)cc1F)=C2 [Compound 340, N-(3-fluoro-4-(2-(methylamino)-8,9-dihydroimidazo[1′,2′:1,6]pyrido[2,3-d]pyrimidin-6-yl)phenyl)-N-(4-fluorophenyl)cyclopropane-1,1-dicarboxamide] | < 5.00 |  |  |  |  | < 5.00 | 5.00 to 7.00 | 
CNc1ncc2c(n1)N1CCN=C1C(c1cc(NC(=O)C3(C(=O)Nc4ccc(F)cc4)CC3)ccc1F)=C2 [Compound 341, N-(4-fluoro-3-(2-(methylamino)-8,9-dihydroimidazo[1′,2′:1,6]pyrido[2,3-d]pyrimidin-6-yl)phenyl)-N-(4-fluorophenyl)cyclopropane-1,1-dicarboxamide] | > 7.00 |  |  |  |  | < 5.00 | 5.00 to 7.00 | 
CNc1ncc2cc(-c3ccc(-c4cccc(C)n4)cc3Cl)c(=O)n(C[C@H]3OC[C@H](N)CO3)c2n1 [Compound G-5555] |  |  |  |  |  |  |  | potent PAK1 inhibitors

Source: patent US20230303570A1, “KINASE INHIBITORS AND USES THEREOF” (ABM Therapeutics Corporation, priority 2020, published 2023)
